Results reported in patent US20230295201A1 (Gilead Sciences, Inc., priority 2020, published 2023).
Like-named read-outs stand apart in the source and are kept apart here.

How the values were obtained:
Type in all cases: cell-based
[1] = system: RSV A2; test: RSV NHBE EC50 (RSV A2 antiviral assay in normal human bronchial epithelial cells); settings: NHBE cells, RSV A2, 4 days, read-out: RSV NHBE EC50
Description: Normal human bronchial epithelial (NHBE) cells were purchased from Lonza (Walkersville, MD, Cat #CC-2540) and cultured in Bronchial Epithelial Growth Media (BEGM) (Lonza, Walkersville, MD, Cat #CC-3170). The cells were passaged 1-2 times per week to maintain <80% confluency. The NHBE cells were discarded after 6 passages in culture.
To conduct the RSV A2 antiviral assay, NHBE cells were plated in 96-well plates at a density of 7,500 cells per well in BEGM and allowed to attach overnight at 37° C. Following attachment, 100 μL of cell culture media was removed and 3-fold serially diluted compound was added using a Hewlett-Packard D300 Digital Dispenser. The final concentration of DMSO was normalized to 0.05%. Following compound addition, the NHBE cells were infected by the addition of 100 μL of RSV A2 at a titer of 1×10^4.5 tissue culture infectious doses/mL in BEGM and then incubated at 37° C. for 4 days. […] The mixtures were incubated for 10 minutes at 25° C., and the luminescence signal was quantified on an Envision luminescence plate reader.

[2] = system: DENV2 replicon; test: DENV-2 Huh-7 Rep EC50 (replicon luminescence); settings: read-out: DENV-2 Huh-7 Rep EC50
Description: In 384 well plates (Greiner, Cat #781091), compounds were acoustically transferred at 200 nl per well in a 8 compound (4 replicates) or 40 compound dose response format (3 replicates). For all plates tested, Balapiravir, GS-5734 and NITD008 were included as positive inhibition controls alongside 0% inhibition, DMSO-only negative control wells. Following compound addition, Huh-7 cells containing the DENV2 replicon construct were harvested following standard cell culture procedures and were adjusted to a concentration of 1.25E5 cells/mL in cell culture media composed of cDMEM without genticin. 40 μL of the cell stock was then added to each well for a final cell density of 5,000 cells/well. Cell and compound mixtures were incubated at 37° C./5% CO2 for 48 hours. Prior to harvesting cells, EnduRen Live Cell Substrate (Promega, Cat #E6481) was prepared by suspending 3.4 mg into 100 uL of DMSO to generate a 60 mM stock solution. The stock solution was then diluted 1:200 in pre-warmed cDMEM and 10 uL of this diluted solution was added to each well of the 384 well plates. Plates were then centrifuged at 500 rpm briefly and were placed on a plate shaker for 2 min. Following mixing, plates were incubated at […] for 1.5 hours prior to measuring luminescence on an Envision luminometer.

[3] = system: RSV strain A2; test: RSV HEp-2 EC50 (infectious cytopathic cell protection assay); settings: HEp-2 cells, RSV A2, 4 days, read-out: RSV HEp-2 EC50
Description: Antiviral activity against RSV is determined using an infectious cytopathic cell protection assay in HEp-2 cells. In this assay, compounds inhibiting viral infection and/or replication produce a cytoprotective effect against the virus-induced cell killing that can be quantified using a cell viability reagent. The techniques used here are novel adaptations of methods described in published literature (Chapman et al., Antimicrob Agents Chemother. 2007, 51(9):3346-53.)
HEp-2 cells are obtained from ATCC (Manassas, VI) and maintained in MEM media supplemented with 10% fetal bovine serum and penicillin/streptomycin. Cells are passaged twice a week and kept at subconfluent stage. Commercial stock of RSV strain A2 (Advanced Biotechnologies, Columbia, MD) is titered before compound testing to determine the appropriate dilution of the virus stock that generates desirable cytopathic effect in HEp-2 cells.
For antiviral tests, HEp-2 cells are grown in large cell culture flasks to near confluency but not fully so. The compounds to be tested are prediluted in DMSO in 384-well compound dilution plates, either in an 8 or 40 sample per plate standardized dose response format. 3-fold serial dilution increments of each test compound are prepared in the plates and test samples are transferred via acoustic transfer apparatus (Echo, Labcyte) at 100 nL per well into cell culture assay 384-well plates. Each compound dilution is transferred in single or quadruplicate samples into dry assay plates, which are stored until assay is ready to go. The positive and negative controls are laid out in opposite on ends of the plate in vertical blocks (1 column).
Subsequently, an infectious mixture is prepared using an appropriate dilution of virus stock previously determined by titration with cells at a density of 50,000/ml and 20 µL/well is added to test plates w/compounds via automation (uFlow, Biotek). Each plate includes negative and positive controls (16 replicates each) to create 0% and 100% virus inhibition standards, respectively. Following the infection with RSV, testing plates are incubated for 4 days in a 37° C. cell culture incubator. After the incubation, a cell viability reagent, Cell TiterGlo (Promega, Madison, WI) is added to the assay plates, which are incubated briefly, and a luminescent readout is measured (Envision, Perkin Elmer) in all the assay plates. The RSV-induced cytopathic effect, percentage inhibition, is determined from the levels of remaining cell viability. […] Various potent anti-RSV tool compounds are used as positive controls for antiviral activity.

[4] = system: HRV16; test: HRV16 HELA EC50 (cytopathic effect in H1-HeLa cells)
Description: H1-HeLa cells, cultured in complete DMEM medium containing 10% heat-inactivated FBS and 1% Penicillin/Streptomycin, were seeded in 96 well plates at 3000 cells/well one day prior to compound dosing and infection. The antiviral activity of each compound was measured in triplicate. Compounds were added directly to the cell cultures in serial 3-fold dilutions using the HP300 digital dispenser (Hewlett Packard, Palo Alto, CA) immediately prior to infection. The plates were transferred to BSL-2 containment and the appropriate dilution of virus stock, previously determined by titration and prepared in cell culture media, was added to test plates containing cells and serially diluted compounds. Each plate included 6 wells of infected untreated cells and 6 wells of uninfected cells that served as 0% and 100% virus inhibition control, respectively. Following the infection, test plates were incubated for 96 h in a tissue culture incubator set to 33° C./5% CO2. Following incubation, the H1-HeLa cells were removed from incubation and allowed to equilibrate to 25° C. Cell viability was determined by removing 100 μL of culture medium and adding 100 μL of Cell-Titer Glo viability reagent. The mixtures were incubated on a shaker for 10 minutes at 25° C., and the luminescence signal was quantified on an Envision luminescence plate reader.

[5] = human respiratory syncytial virus, 96 h
[6] = 96 h, H1-HeLa cells, 33° C., read-out: HRV16 HELA EC50
[7] = human respiratory syncytial virus, NHBE, 96 h
[8] = human respiratory syncytial virus, HEp-2, 96 h
[9] = Dengue virus, DENV2, Huh-7, 48 h, Huh-7 replicon cells, 48 hours

SMILES	EC50 [1, 7] [nM]	EC50 [3, 8] [nM]	EC50 [2, 9] [nM]	other results
CCC(CC)COC(=O)[C@H](C)NP(=O)(N[C@@H](C)C(=O)OC1CCCCC1)OC[C@@]1(C#N)O[C@@H](c2ccc3c(N)ncnn23)[C@H](O)[C@@H]1O (mixture of isomers) [Example 30, cyclohexyl ((((2R,3S,4R,5S)-5-(4-aminopyrrolo[2,1-f][1,2,4]triazin-7-yl)-2-cyano-3,4-dihydroxytetrahydrofuran-2-yl)methoxy)(((S)-1-(2-ethylbutoxy)-1-oxopropan-2-yl)amino)phosphoryl)-L-alaninate]	–	–	–	EC50 [1, 5]: 44 nM; EC50 ([2]; Dengue virus, DENV2, Huh-7, 48 h): 60700 nM; EC50 [3, 5]: 844 nM
C[C@H](NP(=O)(OC[C@@]1(C#N)O[C@@H](c2ccc3c(N)ncnn23)[C@H](O)[C@@H]1O)Oc1ccccc1)C(=O)O[C@@H]1CCN(C)C1 (mixture of isomers) [Example 61, (R)-1-methylpyrrolidin-3-yl ((((2R,3S,4R,5S)-5-(4-aminopyrrolo[2,1-f][1,2,4]triazin-7-yl)-2-cyano-3,4-dihydroxytetrahydrofuran-2-yl)methoxy)(phenoxy)phosphoryl)-L-alaninate]	≥ 5000	2290	–	EC50 [4, 6]: 23200 nM
C[C@H](NP(=O)(OC[C@@]1(C#N)O[C@@H](c2ccc3c(N)ncnn23)[C@H](O)[C@@H]1O)Oc1ccccc1)C(=O)O[C@@H]1CCOC1 (mixture of isomers) [Example 68, (R)-Tetrahydrofuran-3-yl ((((2R,3S,4R,5S)-5-(4-aminopyrrolo[2,1-f][1,2,4]triazin-7-yl)-2-cyano-3,4-dihydroxytetrahydrofuran-2-yl)methoxy)(phenoxy)phosphoryl)-L-alaninate]	–	247	–	EC50 [4, 6]: 4720 nM
C[C@H](N[P@@](=O)(OC[C@@]1(C#N)O[C@@H](c2ccc3c(N)ncnn23)[C@H](O)[C@@H]1O)Oc1ccccc1)C(=O)OC1CCCCC1 (single isomer, unassigned) [Example 5]	630	2740	–	EC50 [4, 6]: 654 nM
C[C@H](NP(=O)(OC[C@@]1(C#N)O[C@@H](c2ccc3c(N)ncnn23)[C@H](O)[C@@H]1O)Oc1ccccc1)C(=O)OC1CCCCCCC1 (single isomer, unassigned) [Example 172]	> 516	–	31400	EC50 [3]: 1450 nM
C[C@H](NP(=O)(OC[C@@]1(C#N)O[C@@H](c2ccc3c(N)ncnn23)[C@H](O)[C@@H]1O)Oc1ccccc1)C(=O)OC1CCC(F)(F)CC1 (single isomer, unassigned) [Example 175]	–	–	–	EC50 [1]: 539 nM; EC50 ([2]; Huh-7 replicon cells, 48 hours): > 100000 nM; EC50 [3]: 801 nM
CCC(CC)COC(=O)[C@H](C)NP(=O)(N[C@@H](C)C(=O)OC1CCCCC1)OC[C@@]1(C#N)O[C@@H](c2ccc3c(N)ncnn23)[C@H](O)[C@@H]1O (single isomer, unassigned) [Example 228]	–	–	–	EC50 ([4]; H1-HeLa cells, 96 h, 33° C.; read-out: HRV16 HELA EC50): 4720 nM; EC50 [1]: 2040 nM
CC(C)OC(=O)[C@H](C)NP(=O)(OC[C@@]1(C#N)O[C@@H](c2ccc3c(N)ncnn23)[C@H](O)[C@@H]1O)Oc1ccc(C(=O)N(C)C)cc1 (stereo partly drawn) [Example 43, Isopropyl ((((2R,3S,4R,5S)-5-(4-aminopyrrolo[2,1-f][1,2,4]triazin-7-yl)-2-cyano-3,4-dihydroxytetrahydrofuran-2-yl)methoxy)(4-(dimethylcarbamoyl)phenoxy)phosphoryl)-L-alaninate]	≥ 5000	55300	> 100000	–
C[C@H](NP(=O)(OC[C@@]1(C#N)O[C@@H](c2ccc3c(N)ncnn23)[C@H](O)[C@@H]1O)Oc1ccccc1)C(=O)OCC12CCN(CC1)CC2 (stereo partly drawn) [Example 213, quinuclidin-4-ylmethyl ((((2R,3S,4R,5S)-5-(4-aminopyrrolo[2,1-f][1,2,4]triazin-7-yl)-2-cyano-3,4-dihydroxytetrahydrofuran-2-yl)methoxy)(phenoxy)phosphoryl)-L-alaninate]	> 5000	3840	> 100000	–
CCC(CC)COC(=O)CNP(=O)(NCC(=O)OCC(CC)CC)OC[C@@]1(C#N)O[C@@H](c2ccc3c(N)ncnn23)[C@H](O)[C@@H]1O [Example 226, 2-Ethylbutyl ((((2R,3S,4R,5S)-5-(4-aminopyrrolo[2,1-f][1,2,4]triazin-7-yl)-2-cyano-3,4-dihydroxytetrahydrofuran-2-yl)methoxy)((2-(2-ethylbutoxy)-2-oxoethyl)amino)phosphoryl)glycinate]	–	–	–	EC50 [1, 5]: 2550 nM; EC50 [3, 5]: 1910 nM
C[C@H](NP(=O)(OC[C@@]1(C#N)O[C@@H](c2ccc3c(N)ncnn23)[C@H](O)[C@@H]1O)Oc1ccccc1)C(=O)OCC1CCCCC1 (stereo partly drawn) [Example 246, cyclohexylmethyl ((((2R,3S,4R,5S)-5-(4-aminopyrrolo[2,1-f][1,2,4]triazin-7-yl)-2-cyano-3,4-dihydroxytetrahydrofuran-2-yl)methoxy)(phenoxy)phosphoryl)-L-alaninate]	41	35	5110	–
COC(=O)[C@H](C)NP(=O)(OC[C@@]1(C#N)O[C@@H](c2ccc3c(N)ncnn23)[C@H](O)[C@@H]1O)Oc1cccnc1 (stereo partly drawn) [Example 249, methyl ((((2R,3S,4R,5S)-5-(4-aminopyrrolo[2,1-f][1,2,4]triazin-7-yl)-2-cyano-3,4-dihydroxytetrahydrofuran-2-yl)methoxy)(pyridin-3-yloxy)phosphoryl)-L-alaninate]	≥ 5000	–	> 50000	–
